Peptide text beside a SMILES is read from it.

For 24 compounds, IC50 results are on record in ChEMBL document CHEMBL1124361, “Tetrapeptide inhibitors of the IgA1 proteinases from type I Neisseria gonorrhoeae” (J Med Chem, 1989).

For the assay, the target named is IgA-specific serine endopeptidase autotransporter (Neisseria gonorrhoeae, UniProt P09790). Put plainly: Inhibitory concentration against type 1 IgA1 proteinases secreted by Neisseria gonorrhoeae.
Sequence of IgA-specific serine endopeptidase autotransporter (P09790 whole entry): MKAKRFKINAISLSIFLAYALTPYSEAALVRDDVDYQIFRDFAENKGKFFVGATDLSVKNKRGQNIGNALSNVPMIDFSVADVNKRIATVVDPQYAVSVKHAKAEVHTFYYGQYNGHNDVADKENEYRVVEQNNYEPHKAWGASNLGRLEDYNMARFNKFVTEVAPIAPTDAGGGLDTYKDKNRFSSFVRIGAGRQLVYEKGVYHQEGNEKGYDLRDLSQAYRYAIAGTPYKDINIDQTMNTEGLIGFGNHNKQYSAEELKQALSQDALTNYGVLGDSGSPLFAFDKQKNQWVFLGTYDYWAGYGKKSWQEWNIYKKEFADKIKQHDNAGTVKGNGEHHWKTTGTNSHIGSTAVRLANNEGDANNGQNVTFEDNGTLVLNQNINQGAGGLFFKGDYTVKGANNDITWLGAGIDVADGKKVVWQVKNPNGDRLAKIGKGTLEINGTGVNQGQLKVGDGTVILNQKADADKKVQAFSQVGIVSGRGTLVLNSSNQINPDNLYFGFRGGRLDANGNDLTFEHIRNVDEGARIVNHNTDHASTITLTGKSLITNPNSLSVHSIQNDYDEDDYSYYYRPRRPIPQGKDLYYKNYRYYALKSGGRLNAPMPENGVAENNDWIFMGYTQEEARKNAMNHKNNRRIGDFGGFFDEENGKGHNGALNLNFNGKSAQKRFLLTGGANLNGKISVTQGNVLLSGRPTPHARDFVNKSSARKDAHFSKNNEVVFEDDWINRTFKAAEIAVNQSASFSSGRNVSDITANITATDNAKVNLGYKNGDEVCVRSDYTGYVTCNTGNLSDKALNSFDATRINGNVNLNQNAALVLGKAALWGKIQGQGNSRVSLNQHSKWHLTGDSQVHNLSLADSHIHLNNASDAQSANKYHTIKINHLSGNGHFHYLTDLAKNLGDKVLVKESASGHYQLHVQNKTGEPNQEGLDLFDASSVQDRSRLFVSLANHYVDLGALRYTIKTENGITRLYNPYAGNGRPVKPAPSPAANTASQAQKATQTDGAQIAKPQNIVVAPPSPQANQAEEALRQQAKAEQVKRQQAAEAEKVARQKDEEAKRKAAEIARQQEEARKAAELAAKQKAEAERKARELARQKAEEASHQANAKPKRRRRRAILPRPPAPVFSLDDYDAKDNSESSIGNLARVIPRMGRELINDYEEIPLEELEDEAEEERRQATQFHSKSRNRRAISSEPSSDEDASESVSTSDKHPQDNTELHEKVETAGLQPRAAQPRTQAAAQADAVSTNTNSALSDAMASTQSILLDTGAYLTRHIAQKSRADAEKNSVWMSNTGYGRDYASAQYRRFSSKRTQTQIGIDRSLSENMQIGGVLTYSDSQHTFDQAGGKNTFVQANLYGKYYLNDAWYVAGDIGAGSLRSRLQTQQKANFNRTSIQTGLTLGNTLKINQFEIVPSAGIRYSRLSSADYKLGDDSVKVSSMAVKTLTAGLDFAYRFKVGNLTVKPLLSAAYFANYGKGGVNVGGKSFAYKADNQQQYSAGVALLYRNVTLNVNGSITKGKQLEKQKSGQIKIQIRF
`CC(=O)N1CCC[C@H]1C(=O)N1CCC[C@H]1C(=O)N[C@H](C(=O)N1CCC[C@H]1C(N)=O)[C@@H](C)O` [ACETYLPROLYLPROLYLTHREONYLPROLINAMIDE(ACPPTPNH2)] (Ac-PPTP-NH2) registered an IC50 of over 1000 µM.
Take `C[C@@H](O)[C@H](NC(=O)[C@@H](N)CO)C(=O)N1CCC[C@H]1C(=O)N1CCC[C@H]1C(=O)O` (H-STPP-OH): the IC50 worked out at 73 µM.
In turn, `C[C@@H](O)[C@H](NC(=O)[C@@H]1CCCN1C(=O)[C@@H]1CCCN1)C(=O)N1CCC[C@H]1C(=O)O` (H-PPTP-OH) yielded an IC50 of 40.5 µM.
`C[C@@H](O)[C@H](N)C(=O)N1CCC[C@H]1C(=O)N1CCC[C@H]1C(=O)N[C@H](C(N)=O)[C@@H](C)O` (H-TPPT-NH2) registered an IC50 of 419 µM.
`O=C(O)[C@H](CO)NC(=O)[C@@H]1CCCN1C(=O)[C@H](CO)NC(=O)[C@@H]1CCCN1` (H-PSPS-OH) registered an IC50 of over 1000 µM.
In turn, `CC(=O)N1CCC[C@H]1C(=O)N[C@H](C(=O)N1CCC[C@H]1C(=O)N[C@@H](CO)C(N)=O)[C@@H](C)O` [ACETYLPROLYLTHREONYLPROLYLSERINAMIDE(ACPTPSNH2)] (Ac-PTPS-NH2) showed a concentration for half-maximal inhibition (IC50) of over 1000 µM.
With `CC(=O)N[C@@H](CO)C(=O)N[C@H](C(=O)N1CCC[C@H]1C(=O)N1CCC[C@H]1C(N)=O)[C@@H](C)O` (Ac-STPP-NH2), the IC50 was over 1000 µM.
Turning to `C[C@@H](O)[C@H](N)C(=O)N1CCC[C@H]1C(=O)N1CCC[C@H]1C(=O)N[C@H](C(=O)O)[C@@H](C)O` (H-TPPT-OH), the IC50 was over 1000 µM.
Consider `C[C@@H](O)[C@H](NC(=O)[C@@H]1CCCN1C(=O)[C@@H]1CCCN1)C(=O)N1CCC[C@H]1C(N)=O` [PROLYLPROLYLTHREONYLPROLINAMIDE(PPTPNH2)] (H-PPTP-NH2), for which the half-maximal inhibitory concentration (IC50) was over 1000 µM.
In the case of `C[C@@H](O)[C@H](NC(=O)[C@@H]1CCCN1)C(=O)N1CCC[C@H]1C(=O)N[C@@H](CO)C(=O)O` (H-PTPS-OH) it was over 1000 µM.
On to `CC(=O)N[C@@H](CO)C(=O)N[C@H](C(=O)N1CCC[C@H]1C(=O)N1CCC[C@H]1C(=O)O)[C@@H](C)O` (Ac-STPP-OH), for which the IC50 is 9.7 µM.
Compound `CC(=O)N1CCC[C@H]1C(=O)N[C@H](C(=O)N1CCC[C@H]1C(=O)N[C@@H](CO)C(=O)O)[C@@H](C)O` (Ac-PTPS-OH) registered an IC50 of 23.8 µM.
In the case of `NC(=O)[C@H](CO)NC(=O)[C@@H]1CCCN1C(=O)[C@H](CO)NC(=O)[C@@H]1CCCN1` (H-PSPS-NH2) it was over 1000 µM; in that of `C[C@@H](O)[C@H](N)C(=O)N1CCC[C@H]1C(=O)N[C@@H](CO)C(=O)N1CCC[C@H]1C(=O)O` (H-TPSP-OH), 33.1 µM; in that of `C[C@@H](O)[C@H](N)C(=O)N1CCC[C@H]1C(=O)N[C@@H](CO)C(=O)N1CCC[C@H]1C(N)=O` [THREONYLPROLYLSERYLPROLINAMIDE(TPSPNH2)] (H-TPSP-NH2), over 1000 µM.
`CC(=O)N1CCC[C@H]1C(=O)N1CCC[C@H]1C(=O)N[C@H](C(=O)N1CCC[C@H]1C(=O)O)[C@@H](C)O` (Ac-PPTP-OH): the IC50 is over 1000 µM.
Regarding `C[C@@H](O)[C@H](NC(=O)[C@@H]1CCCN1)C(=O)N1CCC[C@H]1C(=O)N[C@@H](CO)C(N)=O` (H-PTPS-NH2), 5.3 µM corresponded to half-maximal inhibition (IC50).
`CC(=O)N[C@H](C(=O)N1CCC[C@H]1C(=O)N[C@@H](CO)C(=O)N1CCC[C@H]1C(=O)O)[C@@H](C)O` (Ac-TPSP-OH): the IC50 is 183 µM.
On to `C[C@@H](O)[C@H](NC(=O)[C@@H](N)CO)C(=O)N1CCC[C@H]1C(=O)N1CCC[C@H]1C(N)=O` (H-STPP-NH2), for which the IC50 was over 1000 µM.
In turn, `CC(=O)N[C@H](C(=O)N1CCC[C@H]1C(=O)N1CCC[C@H]1C(=O)N[C@H](C(=O)O)[C@@H](C)O)[C@@H](C)O` (Ac-TPPT-OH) registered an IC50 of over 1000 µM.
As for `CC(=O)N[C@H](C(=O)N1CCC[C@H]1C(=O)N[C@@H](CO)C(=O)N1CCC[C@H]1C(N)=O)[C@@H](C)O` [ACETYLTHREONYLPROLYLSERYLPROLINAMIDE(ACTPSPNH2)] (Ac-TPSP-NH2), the IC50 is over 1000 µM.
`CC(=O)N[C@H](C(=O)N1CCC[C@H]1C(=O)N1CCC[C@H]1C(=O)N[C@H](C(N)=O)[C@@H](C)O)[C@@H](C)O` (Ac-TPPT-NH2) had an IC50 of over 1000 µM.
With `CC(=O)N1CCC[C@H]1C(=O)N[C@@H](CO)C(=O)N1CCC[C@H]1C(=O)N[C@@H](CO)C(N)=O` [ACETYLPROLYLSERYLPROLYLSERINAMIDE(ACPSPSNH2)] (Ac-PSPS-NH2), the IC50 is over 1000 µM.
Take `CC(=O)N1CCC[C@H]1C(=O)N[C@@H](CO)C(=O)N1CCC[C@H]1C(=O)N[C@@H](CO)C(=O)O` (Ac-PSPS-OH): it took 675 µM to reach half-maximal inhibition (IC50).
